Consider 2 compounds from BindingDB's records for doi:10.1016/0922-4106(94)90075-2 (University of Pisa, 1994).

Assay [1] deals with T1, Muscarinic acetylcholine receptor M4 (Homo sapiens, UniProt P08173).
T1 sequence (P08173 whole entry): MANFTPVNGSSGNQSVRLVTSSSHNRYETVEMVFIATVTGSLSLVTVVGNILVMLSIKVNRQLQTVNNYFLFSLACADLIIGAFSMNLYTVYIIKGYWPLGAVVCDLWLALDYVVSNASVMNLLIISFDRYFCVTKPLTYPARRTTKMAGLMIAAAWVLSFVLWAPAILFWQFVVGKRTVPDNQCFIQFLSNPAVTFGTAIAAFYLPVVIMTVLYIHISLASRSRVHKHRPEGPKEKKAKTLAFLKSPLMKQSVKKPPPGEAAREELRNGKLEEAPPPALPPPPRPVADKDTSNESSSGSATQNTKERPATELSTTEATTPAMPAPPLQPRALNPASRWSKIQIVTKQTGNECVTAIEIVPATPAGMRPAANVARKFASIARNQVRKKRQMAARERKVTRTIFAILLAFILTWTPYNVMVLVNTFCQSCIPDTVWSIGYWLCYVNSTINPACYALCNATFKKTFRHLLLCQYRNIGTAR

In assay [2] the target is T2, Muscarinic acetylcholine receptor M5 (Homo sapiens, UniProt P08912).
T2 sequence (P08912 whole entry): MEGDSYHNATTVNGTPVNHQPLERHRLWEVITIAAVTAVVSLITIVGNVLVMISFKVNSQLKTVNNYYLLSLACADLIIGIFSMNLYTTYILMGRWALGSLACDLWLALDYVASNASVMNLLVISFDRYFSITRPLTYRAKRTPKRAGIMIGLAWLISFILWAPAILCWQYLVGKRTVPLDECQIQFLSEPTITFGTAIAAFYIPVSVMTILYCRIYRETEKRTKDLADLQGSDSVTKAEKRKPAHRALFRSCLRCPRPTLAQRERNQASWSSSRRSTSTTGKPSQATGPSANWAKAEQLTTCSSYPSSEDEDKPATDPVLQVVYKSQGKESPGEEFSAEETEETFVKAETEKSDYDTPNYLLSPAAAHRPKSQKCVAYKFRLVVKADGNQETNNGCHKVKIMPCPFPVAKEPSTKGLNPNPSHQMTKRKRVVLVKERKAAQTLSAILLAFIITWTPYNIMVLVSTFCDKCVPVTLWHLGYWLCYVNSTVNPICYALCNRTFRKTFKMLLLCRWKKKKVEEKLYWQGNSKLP

Assay [3] concerns the target Muscarinic acetylcholine receptor M3 (Homo sapiens, UniProt P20309).
Assay [4] has as its target T3, Muscarinic acetylcholine receptor M1 (Homo sapiens, UniProt P11229).
T3 sequence (P11229 whole entry): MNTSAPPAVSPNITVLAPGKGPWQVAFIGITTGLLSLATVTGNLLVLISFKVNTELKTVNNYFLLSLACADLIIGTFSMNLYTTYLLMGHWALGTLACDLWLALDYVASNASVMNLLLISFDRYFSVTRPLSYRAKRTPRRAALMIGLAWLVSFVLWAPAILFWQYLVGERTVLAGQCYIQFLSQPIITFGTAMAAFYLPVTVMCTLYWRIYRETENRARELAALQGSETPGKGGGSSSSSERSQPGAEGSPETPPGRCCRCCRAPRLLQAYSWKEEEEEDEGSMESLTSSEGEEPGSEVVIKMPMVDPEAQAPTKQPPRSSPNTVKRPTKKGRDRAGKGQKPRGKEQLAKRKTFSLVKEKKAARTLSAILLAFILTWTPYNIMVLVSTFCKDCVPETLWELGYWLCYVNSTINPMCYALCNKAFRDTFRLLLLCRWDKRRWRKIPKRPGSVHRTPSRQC

Sequence of Muscarinic acetylcholine receptor M3 (P20309 whole entry): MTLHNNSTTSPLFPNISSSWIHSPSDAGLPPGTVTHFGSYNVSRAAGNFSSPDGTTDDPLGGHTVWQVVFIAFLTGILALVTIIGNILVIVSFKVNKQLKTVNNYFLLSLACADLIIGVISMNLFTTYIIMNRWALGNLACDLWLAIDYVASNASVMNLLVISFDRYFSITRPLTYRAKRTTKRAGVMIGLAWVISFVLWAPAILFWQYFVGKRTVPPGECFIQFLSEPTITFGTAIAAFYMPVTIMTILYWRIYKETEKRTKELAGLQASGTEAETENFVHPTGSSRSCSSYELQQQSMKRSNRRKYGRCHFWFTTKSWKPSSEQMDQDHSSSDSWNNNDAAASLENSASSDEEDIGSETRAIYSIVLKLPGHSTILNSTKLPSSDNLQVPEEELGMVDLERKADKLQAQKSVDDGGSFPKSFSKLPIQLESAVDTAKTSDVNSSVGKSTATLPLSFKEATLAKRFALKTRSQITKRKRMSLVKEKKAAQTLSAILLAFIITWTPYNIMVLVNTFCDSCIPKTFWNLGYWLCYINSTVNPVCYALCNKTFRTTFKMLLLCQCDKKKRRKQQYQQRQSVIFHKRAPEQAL

The Ki is the equilibrium dissociation constant of an inhibitor or competing ligand from its target. Higher therefore signals weaker binding. `COc1ccccc1CNCCCCCCNCCCCCCCCNCCCCCCNCc1ccccc1OC` [METHOCTRAMINE]: the Ki in assay [1] was 38 nM; in assay [2], 313 nM; in assay [3], 277 nM.

Consider `CN(CCCCCCCCN(C)CCCCCCN(CC(=O)N1c2ccccc2C(=O)Nc2cccnc21)CC(=O)N1c2ccccc2C(=O)Nc2cccnc21)CCCCCCNCC(=O)N1c2ccccc2C(=O)Nc2cccnc21` [NSC_132947], for which the Ki was found to be 6.41 nM in assay [1], 1.58 nM in assay [4], 33.9 nM in assay [2] and 38.2 nM in assay [3].
